Source: ChEMBL document CHEMBL4616582, “Green recipes to quinoline: A review” (Eur J Med Chem, 2019)
≈ marks a conversion by molar mass, not a printed value. One block for each molecule: values may come before it.

Key:
B16-F10 = assay: Cytotoxicity against mouse B16F10 cells assessed as reduction in cell viability; assay type: functional, cell-based
Bacillus subtilis = assay: Antibacterial activity against Bacillus subtilis MTCC 121 after 24 hrs by agar well diffusion method; assay type: functional; conditions: MTCC 121, 24 h
HepG2 = assay: Cytotoxicity against human HepG2 cells assessed as reduction in cell viability by MTT assay; assay type: functional, cell-based
Plasmodium falciparum = assay: Antimalarial activity against chloroquine and quinine sensitive Plasmodium falciparum; assay type: functional, organism-based

Compound: O=c1oc2ccccc2c2nc3c(ccc4cc[nH]c43)c(-c3ccc(F)cc3)c12
- IC50 (B16-F10): 70.7 µM

Compound: O=c1oc2ccccc2c2nc3c(ccc4cc[nH]c43)c(-c3ccc(C(F)(F)F)cc3)c12
- IC50 (B16-F10): 70.7 µM

- MIC (Bacillus subtilis): 8 µg/mL (≈ 14.5 µM)
Compound: CC1(C)CC(=O)C2=C(C1)N(c1ccccc1)C(=O)C21C2=C(Nc3ccc(Br)cc31)c1ccccc1C2=O (centres undefined)

Compound: CC(=O)c1cc(C)ccc1Br
- IC50 (HepG2): 0.984 µM

Compound: O=c1oc2ccccc2c2nc3c(ccc4cc[nH]c43)c(-c3ccccc3)c12
- IC50 (B16-F10): 70.7 µM

Compound: O=c1oc2ccccc2c2nc3c(ccc4cc[nH]c43)c(-c3ccccn3)c12
- IC50 (B16-F10): 70.7 µM

- MIC (Bacillus subtilis): 8 µg/mL (≈ 16.9 µM)
Compound: CC1(C)CC(=O)C2=C(C1)N(c1ccccc1)C(=O)C21C2=C(Nc3ccccc31)c1ccccc1C2=O (centres undefined)

- IC50 (Plasmodium falciparum): 0.042 to 0.09 µg/mL (≈ 0.0731 to 0.157 µM)
Compound: Cc1nn(-c2ccccc2)c(Oc2ccc(F)cc2)c1C1C(C#N)=C(N)N(Nc2ccccc2)C2=C1C(=O)CC(C)(C)C2 (centres undefined)

Compound: O=c1oc2ccccc2c2nc3c(ccc4cc[nH]c43)c(-c3ccc(O)cc3)c12
- IC50 (B16-F10): 70.7 µM

- MIC (Bacillus subtilis): 8 µg/mL (≈ 14.5 µM)
Compound: CC1(C)CC(=O)C2=C(C1)N(c1ccc(Cl)cc1)C(=O)C21C2=C(Nc3ccc([N+](=O)[O-])cc31)c1ccccc1C2=O (centres undefined)

- IC50 (Plasmodium falciparum): 0.042 to 0.09 µg/mL (≈ 0.0731 to 0.157 µM)
Compound: Cc1nn(-c2ccccc2)c(Oc2cccc(F)c2)c1C1C(C#N)=C(N)N(Nc2ccccc2)C2=C1C(=O)CC(C)(C)C2 (centres undefined)

Compound: Cc1ccc(Br)c2c(=O)c3/c(=N/c4ccccc4)ssc3n(-c3ccccc3)c12
- IC50 (HepG2): 0.984 µM

Compound: O=c1c2ccc(F)cc2n(-c2ccccc2)c2ss/c(=N\c3ccccc3)c12
- IC50 (HepG2): 0.984 µM

- MIC (Bacillus subtilis): 8 µg/mL (≈ 14.1 µM)
Compound: O=C1CCCC2=C1C1(C(=O)N2c2ccc(Br)cc2)C2=C(Nc3ccc([N+](=O)[O-])cc31)c1ccccc1C2=O (centres undefined)

- MIC (Bacillus subtilis): 8 µg/mL (≈ 18 µM)
Compound: O=C1CCCC2=C1C1(C(=O)N2c2ccccc2)C2=C(Nc3ccccc31)c1ccccc1C2=O (centres undefined)

- IC50 (Plasmodium falciparum): 0.042 to 0.09 µg/mL (≈ 0.0709 to 0.152 µM)
Compound: Cc1nn(-c2ccccc2)c(Oc2cccc(F)c2)c1C1C(C#N)=C(N)N(Nc2ccc(F)cc2)C2=C1C(=O)CC(C)(C)C2 (centres undefined)

Compound: O=Cc1cccc(Cl)c1Cl
- IC50 (B16-F10): 70.7 µM

Compound: O=c1c2c(Cl)cc(Cl)c(F)c2n(-c2ccccc2)c2ss/c(=N\c3ccccc3)c12
- IC50 (HepG2): 0.984 µM

- MIC (Bacillus subtilis): 8 µg/mL (≈ 14.9 µM)
Compound: Cc1ccc(N2C(=O)C3(C4=C(Nc5ccc(Br)cc53)c3ccccc3C4=O)C3=C2CCCC3=O)cc1 (centres undefined)

- MIC (Bacillus subtilis): 8 µg/mL (≈ 16.3 µM)
Compound: O=C1CCCC2=C1C1(C(=O)N2c2ccccc2)C2=C(Nc3ccc([N+](=O)[O-])cc31)c1ccccc1C2=O (centres undefined)

- IC50 (Plasmodium falciparum): 0.042 to 0.09 µg/mL (≈ 0.069 to 0.148 µM)
Compound: Cc1nn(-c2ccccc2)c(Oc2ccccc2F)c1C1C(C#N)=C(N)N(Nc2ccc(Cl)cc2)C2=C1C(=O)CC(C)(C)C2 (centres undefined)

Compound: O=c1oc2ccccc2c2nc3c(ccc4cc[nH]c43)c(-c3cccnc3Cl)c12
- IC50 (B16-F10): 70.7 µM

Compound: CC(=O)c1cc(F)c(Cl)cc1Cl
- IC50 (HepG2): 0.984 µM

- MIC (Bacillus subtilis): 8 µg/mL (≈ 16.4 µM)
Compound: Cc1ccc(N2C(=O)C3(C4=C(Nc5ccccc53)c3ccccc3C4=O)C3=C2CC(C)(C)CC3=O)cc1 (centres undefined)

- MIC (Bacillus subtilis): 8 µg/mL (≈ 15.8 µM)
Compound: CC1(C)CC(=O)C2=C(C1)N(c1ccco1)C(=O)C21C2=C(Nc3ccc([N+](=O)[O-])cc31)c1ccccc1C2=O (centres undefined)

Compound: O=c1oc2ccccc2c2nc3c(ccc4cc[nH]c43)c(-c3ccc(Cl)cc3)c12
- IC50 (B16-F10): 70.7 µM

- MIC (Bacillus subtilis): 8 µg/mL (≈ 15.1 µM)
Compound: CCCCN1C(=O)C2(C3=C(Nc4ccc(Br)cc42)c2ccccc2C3=O)C2=C1CC(C)(C)CC2=O (centres undefined)

- IC50 (Plasmodium falciparum): 0.042 to 0.09 µg/mL (≈ 0.0709 to 0.152 µM)
Compound: Cc1nn(-c2ccccc2)c(Oc2ccc(F)cc2)c1C1C(C#N)=C(N)N(Nc2ccc(F)cc2)C2=C1C(=O)CC(C)(C)C2 (centres undefined)

Compound: O=c1cc(O)c2cc(F)ccc2o1
- IC50 (B16-F10): 70.7 µM

- IC50 (Plasmodium falciparum): 0.042 to 0.09 µg/mL (≈ 0.0731 to 0.157 µM)
Compound: Cc1nn(-c2ccccc2)c(Oc2ccccc2F)c1C1C(C#N)=C(N)N(Nc2ccccc2)C2=C1C(=O)CC(C)(C)C2 (centres undefined)

Compound: O=c1oc2ccccc2c2nc3c(ccc4cc[nH]c43)c(-c3cccc(Br)c3)c12
- IC50 (B16-F10): 70.7 µM

- MIC (Bacillus subtilis): 8 µg/mL (≈ 14.8 µM)
Compound: CC1(C)CC(=O)C2=C(C1)N(c1ccco1)C(=O)C21C2=C(Nc3ccc(Br)cc31)c1ccccc1C2=O (centres undefined)

- IC50 (Plasmodium falciparum): 0.042 to 0.09 µg/mL (≈ 0.0643 to 0.138 µM)
Compound: Cc1nn(-c2ccccc2)c(Oc2ccc(F)cc2)c1C1C(C#N)=C(N)N(Nc2ccc(Br)cc2)C2=C1C(=O)CC(C)(C)C2 (centres undefined)

- MIC (Bacillus subtilis): 8 µg/mL (≈ 16.7 µM)
Compound: O=C1CCCC2=C1C1(C(=O)N2c2ccc(Cl)cc2)C2=C(Nc3ccccc31)c1ccccc1C2=O (centres undefined)

Compound: O=c1oc2ccccc2c2nc3c(ccc4cc[nH]c43)c(-c3cccc(Cl)c3Cl)c12
- IC50 (B16-F10): 70.7 µM

- IC50 (Plasmodium falciparum): 0.042 to 0.09 µg/mL (≈ 0.0672 to 0.144 µM)
Compound: Cc1nn(-c2ccccc2)c(Oc2cccc(C(F)(F)F)c2)c1C1C(C#N)=C(N)N(Nc2ccccc2)C2=C1C(=O)CC(C)(C)C2 (centres undefined)

- IC50 (Plasmodium falciparum): 0.042 to 0.09 µg/mL (≈ 0.0643 to 0.138 µM)
Compound: Cc1nn(-c2ccccc2)c(Oc2ccccc2F)c1C1C(C#N)=C(N)N(Nc2ccc(Br)cc2)C2=C1C(=O)CC(C)(C)C2 (centres undefined)

Compound: Nc1cccc2cc[nH]c12
- IC50 (B16-F10): 70.7 µM

Compound: CC(=O)c1ccc(Cl)cc1
- IC50 (HepG2): 0.984 µM

Compound: O=Cc1cccnc1Cl [2-CHLORONICOTINALDEHYDE]
- IC50 (B16-F10): 70.7 µM

Compound: O=Cc1ccccn1 [2-PYRIDINECARBOXALDEHYDE]
- IC50 (B16-F10): 70.7 µM

Compound: O=Cc1ccc(O)cc1 [4-HYDROXYBENZALDEHYDE]
- IC50 (B16-F10): 70.7 µM

Compound: O=c1cc(O)c2ccccc2o1 [4-HYDROXYCOUMARINS]
- IC50 (B16-F10): 70.7 µM

Compound: CC(=O)c1ccccc1 [ACETOPHENONE]
- IC50 (HepG2): 0.984 µM

Compound: COc1ccc(C=O)cc1 [ANISALDEHYDE]
- IC50 (B16-F10): 70.7 µM

Compound: O=Cc1ccccc1 [BENZALDEHYDE]
- IC50 (B16-F10): 70.7 µM

- MIC (Bacillus subtilis): 6.25 µg/mL (≈ 18.9 µM)
Compound: O=C(O)c1cn(C2CC2)c2cc(N3CCNCC3)c(F)cc2c1=O [CIPROFLOXACIN]

Compound: CC(C)=CCC[C@]1(C)C=Cc2c(O)c3c(c(CC=C(C)C)c2O1)O[C@]12C(=C[C@@H]4C[C@H]1C(C)(C)O[C@@]2(C/C=C(/C)C(=O)O)C4=O)C3=O [GAMBOGIC ACID]
- IC50 (HepG2): 1.55 µM

Compound: S=C=Nc1ccccc1 [PHENYLISOTHIOCYANATE]
- IC50 (HepG2): 0.984 µM
